Results taken from US20260209152A1, “Substituted Hydroxystilbene Compounds and Derivatives, Synthesis and Uses Thereof” (Kynan Duke IP, LLC, priority 2019, published 2026).
Where two headings read alike, the source gives them in different places.

Assays:
[1] = system: Kidney A-498; assay: CellTiter Glo cell viability assay; assay type: cell-based, human; conditions: Homo sapiens, A498, Table 5A: 11 dilutions 3-0.00001 μM; single experiments Exp E-K; read-out: IC50
Method: (§1) 1.7*10^3 cells/well were seeded in quadruplicates in 96-well plate after plating. […] Cell growth was assessed on day 1, 3 and 5 after drug treatments using the CellTiter Glo Luminescence Cell Viability Assay (Promega) according to manufacturer's protocol. Thermo Scientific Varioskan LUX Multimode Microplate instrument was used for plate reading. Data are expressed as mean luminescence (arbitrary units) ±S.D.
(§2) Cell Viability Assays were employed to determine the concentration of Compound 1 (KYN-001) and analogues where the response is reduced by half. […] GraphPad Prism 7 software was used to fit dose response curves. Relative Luminescence Units were plotted against the log values of the doses used and the nonlinear regression model was used for data analysis.
The protocol for cell proliferation was optimized for Compound 8 (KYN-119) to enable a more accurate assessment of its low IC50 value. […]

[2] = system: Pancreatic MIA PaCa-2; assay: CellTiter Glo cell viability assay; assay type: cell-based, human; conditions: Homo sapiens, read-out: IC50
Method: (§3) 1.7*10^3 cells/well were seeded in quadruplicates in 96-well plate after plating. Drugs were added at 5 μM and 2-fold dilutions over 18 concentrations (0.000038146-5 […] range) to generate a dose-response curve. Cell growth was assessed on day 1, 3 and 5 after drug treatments using the CellTiter Glo Luminescence Cell Viability Assay (Promega) according to manufacturer's protocol. Thermo Scientific Varioskan LUX Multimode Microplate instrument was used for plate reading. Data are expressed as mean luminescence (arbitrary units) ±S.D.
(§4) Cell Viability Assays were employed to determine the concentration of Compound 1 (KYN-001) and analogues where the response is reduced by half. For each treatment of cancer cells, 1, 2, 5, 10 and 20 μM solutions of compounds were applied. GraphPad Prism 7 software was used to fit dose response curves. Relative Luminescence Units were plotted against the log values of the doses used and the nonlinear regression model was used for data analysis.
(§5) The protocol for cell proliferation was optimized for Compound 8 (KYN-119) to enable a more accurate assessment of its low IC50 value. In this protocol, 18 dosages (2 fold dilutions ranging from 0.000038146 to 5 μM) were applied to cells seeded in 96-well plates, and Luminescence was measured after 1, 3 and 5 days upon treatments.
Day 3 upon treatment of MIA PaCa_2 pancreatic cancer cells, 24 h after plating (11 dilutions), as assessed by CellTiter Glow Assay.

[3] = system: Cancer cells including pancreatic, bladder, kidney, colon, breast, lung, liver and osteosarcomas; assay: CellTiter Glo cell viability assay, panel of cancer cell lines; assay type: cell-based, human; conditions: SAR discussion based on IC50 values in Tables 1 to 5; compared with 1 [KYN-001]
Method: Compounds 1 to 15 were evaluated and their effect on cancer growth examined in cell viability assays on multiple cancer types (Tables 1 to 5). Cancer cells including pancreatic, bladder, kidney, colon, breast, lung, liver and osteosarcomas obtained from ATCC (American Type Culture Collection) were authenticated before use by Short Tandem Repeat genomic analysis (Reid Y, Storts D, Riss T and Minor L. Authentication of Human Cell Lines by STR DNA Profiling Analysis. 2013 May 1. In: Markossian S, Sittampalam G S, Grossman A, et al., editors. Assay Guidance Manual. Bethesda (MD): Eli Lilly & Company and the National Center for Advancing Translational Sciences; 2004.). Experimental protocol for each cancer cell line was verified and optimized according to literature reports before use (Tables 1 to 3).
as §3, §4, §5

[4] = Stability in solution (LCMS observation); assay type: physicochemical; conditions: standing in methanol for 16 hours; acetonitrile in water chromatography
Method: NOTE: In a trial run, compound 15-9 (50 mg) was converted to compound 15 using conditions as described above.

[5] = system: Brain U-87 MG HTB-14; assay: CellTiter Glo cell viability assay; assay type: cell-based; conditions: Homo sapiens, Table 5B: 11 dilutions 3-0.00001 μM, Exp L-N
Method: as §1, §2

[6] = system: GBM patient sample BNA99; assay: Ex vivo GBM 3D spheroid drug response (CellTiter-Glo 3D); assay type: cell-based, human; parameters: key to TMZ Response: NR: Non-responder; MR: Moderate responder; Responder; conditions: 3D spheroids
Description: (§6) This project involves an ex vivo drug response screen for 3 ROKiT Pharma test agents and Temozolomide in 3 previously dissociated and cryopreserved GBM samples.
(§7) • 2.1 Three previously processed GBM patient samples were chosen to be used in this study.

[7] = system: GBM patient sample BNB04; assay: as above; assay type: cell-based, human; parameters: key to TMZ Response: NR: Non-responder; MR: Moderate responder; Responder; conditions: 3D spheroids
Description: as §6, §7

[8] = system: GBM patient sample BNB18; assay: as above; assay type: cell-based, human; parameters: key to TMZ Response: NR: Non-responder; MR: Moderate responder; Responder; conditions: 3D spheroids
Description: as §6, §7

[9] = system: IL-17A secretion from human PBMC stimulated with antiCD3/antiCD28-coated beads; conditions: assay description, cited from earlier work
[10] = MIA PaCa-2, Table 5B: MIA PaCa-2 CRL-1420, 11 dilutions 3-0.00001 μM, Exp L-N

IC50 [2, 10] | IC50 [5] | SMILES | Cancer cell viability inhibition, statement in words [3] | other results
– | – | CNc1cc(/C=C/c2cc(O)cc(OC)c2CC=C(C)C)ccc1O [Compound 15, (E)-3-(4-Hydroxy-3-(methylamino)styryl)-5-methoxy-4-(3-methylbut-2-en-1-yl)phenol] | inactive or weakly active | IC50 [1]: > 3000 nM; IC50 ([2]; MIA PaCa-2, Table 5A: 11 dilutions 3-0.00001 μM, single experiments Exp E-K): > 3000 nM; Stability in solution [4]: might be unstable in solution
> 3000 nM | ~3000 nM | CCOc1cc(O)cc(/C=C/c2ccc(N(O)C(C)=O)c(OC)c2)c1CC=C(C)C [Compound 39, (E)-N-(4-(3-ethoxy-5-hydroxy-2-(3-methylbut-2-en-1-yl)styryl)-2-methoxyphenyl)-N-hydroxyacetamide] | almost complete loss of anticancer activity | –
486 nM | 555 nM | COc1cc(/C=C/c2cc(O)cc(NC=O)c2CC=C(C)C)ccc1O [Compound 48, (E)-N-(5-Hydroxy-3-(4-hydroxy-3-methoxystyryl)-2-(3-methylbut-2-en-1-yl)phenyl)formamide] | anticancer activities comparable to 1 | –
531 nM | 1400 nM | COc1cc(/C=C/c2cc(O)cc(NC(C)=O)c2CC=C(C)C)ccc1O [Compound 49, (E)-N-(5-hydroxy-3-(4-hydroxy-3-methoxystyryl)-2-(3-methylbut-2-en-1-yl)phenyl)acetamide] | anticancer activities comparable to 1 | –
– | ~3000 nM | CCOc1cc(O)cc(/C=C/c2ccc3[nH]c(=O)n(C)c3c2)c1CC=C(C)C [Compound 51, (E)-6-(3-Ethoxy-5-hydroxy-2-(3-methylbut-2-en-1-yl)styryl)-1-methyl-1,3-dihydro-2H-benzo[d]imidazol-2-one] | no significant activity | –
– | – | Cn1nnc2c(C(N)=O)ncn2c1=O [TMZ, Temozolomide, reference compound] | – | TMZ Response [6]: NR; TMZ Response [7]: MR; TMZ Response [8]: R
– | – | C=CC[C@@H]1/C=C(\C)C[C@H](C)C[C@H](OC)[C@H]2O[C@@](O)(C(=O)C(=O)N3CCCC[C@H]3C(=O)O[C@H](/C(C)=C/[C@@H]3CC[C@@H](O)[C@H](OC)C3)[C@H](C)[C@@H](O)CC1=O)[C@H](C)C[C@@H]2OC [Tacrolimus] | – | Emax (plateau of the fitted curve), IL-17A release (reference compound) [9]: approximately 90%; EC50 ([9]; read-out: EC50, IL-17A release (reference compound)): ~0.34 nM
